Reference: the NIST ThermoML archive (doi:10.1016/j.fluid.2010.07.015)

Experiment: wn = mass fraction of the nth substance listed
Details: 101 kPa, Radial Heat Flow Method

[Sn] [tin] + [Al]
thermal conductivity [W/m/K], w2 = 0
Details	373 K	393 K	413 K	433 K	453 K	473 K	504 K
Crystal	67.2	65.2	63.3	61.7	62.5	60.6	–
Liquid	–	–	–	–	–	–	67.2

[Al] [aluminum] + [Sn]
Details	thermal conductivity [W/m/K]
323 K, Crystal, w1 = 0.022	98.8
323 K, Crystal, w1 = 0.25	139.3
323 K, Crystal, w1 = 0.5	191.7
323 K, Crystal, w1 = 0.75	235.5
343 K, Crystal, w1 = 0.022	97.4
343 K, Crystal, w1 = 0.25	136.8
343 K, Crystal, w1 = 0.5	185.3
343 K, Crystal, w1 = 0.75	233.7
363 K, Crystal, w1 = 0.005	83.5
363 K, Crystal, w1 = 0.022	93.3
363 K, Crystal, w1 = 0.25	135.9
363 K, Crystal, w1 = 0.5	180.6
363 K, Crystal, w1 = 0.75	228.2
383 K, Crystal, w1 = 0.005	79.5
383 K, Crystal, w1 = 0.022	92.7
383 K, Crystal, w1 = 0.25	132.3
383 K, Crystal, w1 = 0.5	177
383 K, Crystal, w1 = 0.75	224.4
403 K, Crystal, w1 = 0.005	78.7
403 K, Crystal, w1 = 0.022	92.9
403 K, Crystal, w1 = 0.25	130.5
403 K, Crystal, w1 = 0.5	174.6
403 K, Crystal, w1 = 0.75	220.9
423 K, Crystal, w1 = 0.005	78.5
423 K, Crystal, w1 = 0.022	90.5
423 K, Crystal, w1 = 0.25	125.4
423 K, Crystal, w1 = 0.5	170.6
423 K, Crystal, w1 = 0.75	217.6
423 K, Crystal, w1 = 1	302.9
443 K, Crystal, w1 = 0.005	77.8
443 K, Crystal, w1 = 0.022	88.2
443 K, Crystal, w1 = 0.25	123.9
443 K, Crystal, w1 = 0.5	166.6
443 K, Crystal, w1 = 0.75	211.4
463 K, Crystal, w1 = 0.005	76.3
463 K, Crystal, w1 = 0.022	86.3
463 K, Crystal, w1 = 0.25	118
463 K, Crystal, w1 = 0.5	160.1
463 K, Crystal, w1 = 0.75	207
473 K, Crystal, w1 = 1	288.3
483 K, Crystal, w1 = 0.005	75.8
483 K, Crystal, w1 = 0.022	82.7
483 K, Crystal, w1 = 0.25	116.5
483 K, Crystal, w1 = 0.5	152.6
483 K, Crystal, w1 = 0.75	196.2
493 K, Crystal, w1 = 0.005	69.7
493 K, Crystal, w1 = 0.022	80.3
493 K, Crystal, w1 = 0.25	112.3
493 K, Crystal, w1 = 0.5	142
493 K, Crystal, w1 = 0.75	188.5
501 K, Liquid, w1 = 0.005	73.8
523 K, Crystal, w1 = 1	278.6
573 K, Crystal, w1 = 1	261.8
623 K, Crystal, w1 = 1	255.7
673 K, Crystal, w1 = 1	244.8
723 K, Crystal, w1 = 1	241.4
773 K, Crystal, w1 = 1	238.6
823 K, Crystal, w1 = 1	227.4
873 K, Crystal, w1 = 1	226.1
923 K, Crystal, w1 = 1	208.8
933 K, Liquid, w1 = 1	235
